Source: ChEMBL document CHEMBL1152047, “(cis)-3-methyl-1,5-benzothiazepine-4-ones: potent analogs of the calcium channel blocker diltiazen” (Bioorg Med Chem Lett, 1993)

Species: Oryctolagus cuniculus
Assay: Vasorelaxant potency determined by relaxation of potassium depolarized rabbit aortic strips
Format: functional
Settings: Aorta

SMILES	IC50
COc1ccc([C@@H]2Sc3cc(OC)ccc3N(CCN(C)C)C(=O)[C@@H]2C)cc1	10 nM
COc1ccc([C@@H]2Sc3cc(C(F)(F)F)ccc3N(CCN(C)C)C(=O)[C@@H]2C)cc1	22 nM
COc1ccc([C@@H]2Sc3cc(OC)ccc3N(CCN(C)C)C(=O)[C@@H]2OC(C)=O)cc1	120 nM
COc1ccc([C@@H]2Sc3ccccc3N(CCN(C)C)C(=O)[C@@H]2C)cc1	82 nM
